Values of other authors in US20040132743A1 (DR. REDDY'S LABORATORIES LIMITED DR. REDDY'S LABORATORIES, …, priority 2002, published 2004).

Legend:
[1] = studies in patients
[2] = in vivo
[3] = amorphous form compared with crystalline form

## O=C(O)COCCN1CCN(C(c2ccccc2)c2ccc(Cl)cc2)CC1 (racemic) [cetirizine]
[1]
  symptomatic relief of seasonal allergies: safe and effective, symptomatic relief of seasonal allergies

## O=C(O)COCCN1CCN([C@H](c2ccccc2)c2ccc(Cl)cc2)CC1 [Levocetirizine]
[2]
  side effects on the central nervous system: free from side effects on the central nervous system

## CO/N=C(\C(=O)N[C@@H]1C(=O)N2C(C(=O)OC(C)OC(C)=O)=C(COC(N)=O)CS[C@H]12)c1ccco1 (stereo partly drawn) [amorphous form of cefuroxime axetil, cefuroxime axetil]
[3]
  bioavailability: higher bioavailability than its crystalline form
